# Experimental data published in US6723742B2, “Substituted 3,5-diphenyl-1,2,4-triazoles and their use as pharmaceutical metal chelators” (Novartis AG., priority 1996, dated 2004).
# Test system: Male Sprague-Dawley rats
# Assay: Test I: iron excretion induced in bile duct-cannulated rats (bile and urine iron, bathophenanthroline method)
# Type: in vivo
# Conditions: bile duct-cannulated fasted rat; dose 100 mg/kg; bile and urine collected for 24 h
# Description: Test I: Iron Excretion Induced by Compounds of Formula I or II [Method as Described in Bergeron et al., J. Med. Chem. 34:2072-2078 (1991)]
# Male Sprague-Dawley rats averaging 400 g are housed in Nalgene plastic metabolic cages and are given free access to water. The animals are anesthetized with sodium pentobarbital (50 mg/kg), given ip. The bile duct is cannulated with 22 gauge PE 50 tubing which is inserted ca. 2 cm into the duct and tied firmly in place. A skin-tunneling needle is inserted from the shoulder area around the abdominal incision. The cannula is threaded through the needle until it emerges from the shoulder opening. The cannula is then passed from the animal to the swivel inside a metal torque-transmitting tether, which is attached to a rodent jacket. The cannula is directed from the animal to a Gilson microfraction collector by a fluid swivel mounted above the metabolic cage. This system allows the animal to move freely in the cage while continuous bile samples are being collected. Bile samples are collected in plastic disposable tubes at 3 h intervals for 24 h. Urine samples are collected in plastic disposable tubes for 24 h.
# Compounds of formula I or II are prepared in 60 % water, 40 % Cremophor RH-40 (v/v).
# All animals are fasted for 48 h before the administration of the compound of formula I or II and the fast is maintained throughout the course of the experiment.
# The iron indicator solution, solution A, is prepared by diluting a stock aqueous solution of 0.134 mM mercaptoacetic acid and 1.9 mM bathophenanthrolinedisulfonic acid disodium salt with 5 parts water and 5 parts saturated aqueous sodium acetate. Solution B is prepared as above but without the bathophenanthroline.
# An equal volume of a 10 % trichloroacetic acid solution in 3 M HCl (solution C) is added to a urine sample (2.5 ml), and the sample heated in a 65° C. bath for 4 h. After filtration through nylon filters, two 1 ml aliquots are removed. Solution A (5 ml) is added to the sample, and solution B (5 ml) is added to the blank. Bile samples are prepared as the urine samples; however, the volumes are reduced. Standard iron curves are generated with each assay. All samples are transferred to polystyrene cuvettes and the absorbance measured at 535 nm.
# Compounds of formula I or II are effective in this assay when administered at a dose in the range of from 10 to 200 mg/kg, e.g. 100 to 150 mg/kg. The induced total iron excretion is in the range of about 10 to 1500 μg Fe/kg body weight, e.g. 90 to 1000 μg Fe/kg body weight.
row,Compound,induced total iron excretion [μg Fe/kg body weight]
1,"CN(C)C(=O)Cn1nc(-c2ccccc2O)nc1-c1ccccc1O [Example 33, 2-[3,5-Bis(2-hydroxyphenyl)-[1,2,4]triazol-1-yl]-N,N-dimethylacetamide]",282
2,"O=C(Cn1nc(-c2ccccc2O)nc1-c1ccccc1O)NC(CO)CO [Example 31, 2-[3,5-Bis(2-hydroxyphenyl)-[1,2,4]triazol-1-yl]-N-(2-hydroxy-1-hydroxymethyl-ethyl)acetamide]",175
3,"O=C(O)Cn1nc(-c2ccccc2O)nc1-c1ccccc1O [Example 22, [3,5-Bis(2-hydroxyphenyl)-[1,2,4]triazol-1-yl]acetic acid]",147
4,"O=C(Cn1nc(-c2ccccc2O)nc1-c1ccccc1O)NCCN1CCOCC1 [Example 27, 2-[3,5-Bis(2-hydroxyphenyl)-[1,2,4]triazol-1-yl]-N-(2-morpholin-4-yl-ethyl)-acetamide]",451
5,"O=C(Cn1nc(-c2ccccc2O)nc1-c1ccccc1O)NCCO [Example 24, 2-[3,5bis(2-hydroxyphenyl)-(1,2,4]triazol-1-yl]-N-(2-hydroxyethyl)acetamide]",413
6,"O=C(O)c1ccc(-n2nc(-c3ccccc3O)nc2-c2ccccc2O)cc1 [Example 5, 4-[3,5-Bis(2-hydroxyphenyl)-[1,2,4]triazol-1-yl]benzoic acid]",659
7,"O=C(Cn1nc(-c2ccccc2O)nc1-c1ccccc1O)N1CCOCC1 [Example 34, 2-[3,5-Bis(2-hydroxyphenyl)-[1,2,4]triazol-1-yl]-l-morpholin-4-ylethanone]",204
8,"O=C(Cn1nc(-c2ccccc2O)nc1-c1ccccc1O)NCC(O)CO (stereo not drawn) [Example 26, 2-[3,5-Bis(2-hydroxyphenyl)-[1,2,4]triazol-1-yl]-N-(2,3-dihydroxypropyl)-acetamide]",171
9,"O=C(Cn1nc(-c2ccccc2O)nc1-c1ccccc1O)NCCN(CCO)CCO [Example 30, N-{2-[Bis(2-hydroxyethyl)amino]ethyl}-2-[3,5-bis(2-hydroxyphenyl)-[1,2,4]triazol-1-yl]acetamide]",447
10,"CN(CCO)C(=O)Cn1nc(-c2ccccc2O)nc1-c1ccccc1O [Example 28, 2-[3,5-Bis(2-hydroxyphenyl)-[1,2,4]triazol-1-yl]-N-(2-hydroxyethyl)-N-methyl-acetamide]",413
11,"O=C(Cn1nc(-c2ccccc2O)nc1-c1ccccc1O)NCCOCCO [Example 29, 2-[3,5-Bis(2-hydroxyphenyl)-[1,2,4]triazol-1-yl]-N-[2-(2-hydroxyethoxy)ethyl]-acetamide]",359
12,"O=C(Cn1nc(-c2ccccc2O)nc1-c1ccccc1O)N(CCO)CCO [Example 37, 2-[3,5-Bis(2-hydroxyphenyl)-[1,2,4]triazol-1-yl]-N,N-bis(2-hydroxyethyl)-acetamide]",301
13,"CCOC(=O)Cn1nc(-c2ccccc2O)nc1-c1ccccc1O [Example 2, Ethyl [3,5bis(2-hydroxyphenyl)-[1,2,4]triazol-1-yl]acetate]",91
14,"COCCNC(=O)Cn1nc(-c2ccccc2O)nc1-c1ccccc1O [Example 25, 2-[3,5-Bis(2-hydroxyphenyl)-[1,2,4]triazol-1-yl]-N-(2-methoxyethyl)acetamide]",337
15,"OCCn1nc(-c2ccccc2O)nc1-c1ccccc1O [Example 1, 3,5-Bis(2-hydroxyphenyl)-1-(2-hydroxyethyl)-1H-[1,2,4]triazole]",368

# Same assay, conditions: bile duct-cannulated fasted rat; dose 118 mg/kg; bile and urine collected for 24 h
row,Compound,induced total iron excretion [μg Fe/kg body weight]
1,"CN1CCN(C(=O)Cn2nc(-c3ccccc3O)nc2-c2ccccc2O)CC1 [Example 35, 2-[3,5-Bis(2-hydroxyphenyl)-[1,2,4]triazol-1-yl]-1-(4-methylpiperazin-1-yl)-ethanone]",293

# Same assay, conditions: bile duct-cannulated fasted rat; dose 119 mg/kg; bile and urine collected for 24 h
row,Compound,induced total iron excretion [μg Fe/kg body weight]
1,"CN(C)CCN(C)C(=O)Cn1nc(-c2ccccc2O)nc1-c1ccccc1O [Example 38, 2-[3,5-Bis(2-hydroxyphenyl)-[1,2,4]triazol-1-yl]-N-(2-dimethylaminoethyl)-N-methylacetamide]",970

# Same assay, conditions: bile duct-cannulated fasted rat; dose 120 mg/kg; bile and urine collected for 24 h
row,Compound,induced total iron excretion [μg Fe/kg body weight]
1,"Cc1ccc(O)c(-c2nc(-c3cc(C)ccc3O)n(-c3ccc(C(=O)O)cc3)n2)c1 [Example 21, 4-[3,5-Bis(2-hydroxy-5-methylphenyl)-[1,2,4]triazol-1-yl]benzoic acid]",317

# Same assay, conditions: bile duct-cannulated fasted rat; dose 133 mg/kg; bile and urine collected for 24 h
row,Compound,induced total iron excretion [μg Fe/kg body weight]
1,"O=C(c1ccc(-n2nc(-c3ccccc3O)nc2-c2ccccc2O)cc1)N1CCOCC1 [Example 6, {4-[3,5-Bis(2-hydroxyphenyl)-[1,2,4]triazol-1-yl]-phenyl}morpholin-4-yl-methanone]",968
2,"O=C(O)c1ccc(-n2nc(-c3cc(Cl)ccc3O)nc2-c2cc(Cl)ccc2O)cc1 [Example 17, 4-[3,5-Bis(5-chloro-2-hydroxyphenyl)-[1,2,4]triazol-1-yl]benzoic acid]",203

# Test system: iron-overloaded marmosets (Callithrix jacchus)
# Assay: Test II: iron excretion induced in iron-overloaded marmosets (urine and feces iron)
# Type: in vivo
# Conditions: iron-overloaded marmoset, p.o., dose 110.5 mg/kg; 48 h after administration, pretreatment subtracted; one line per animal
# Description: Test II: Iron Excretion Induced by Compounds of Formula I or II [Method as Described in Bergeron et al., Blood 81:2166-2173 (1993)]
# Adult (1 to 11 years old) marmosets (Callithrix jacchus) of both sexes, weighing 300 to 450 g are kept in pairs at 24-27° C. and a relative humidity of at least 60% in a 12-hour light-dark cycle. The animals are maintained on a pellet diet (No. 962 Nafag, Gossau, Switzerland) supplemented with fruit-vegetable mash, enriched with a vitamin-minerals concentrate (No. 9628 Nafag) and milk. Water is available ad libitum.
# Iron-overloading procedure: The animals are iron-overloaded by 3 i.p. injections of iron (III) hydroxide polyisomaltose (Anaemex, Ciba-Geigy, Basel, Switzerland) at 14-day intervals (200 mg/kg twice and 100 mg/kg at the third injection). Prior to the first exposure to an iron chelator, the marmosets are rested at least 8 weeks.
# Chelators administration: The test compounds are dispersed in 40 % aqueous Cremophor RH 40 (BASF, Ludwigshafen, Germany) for administration. The applied volume is 5 ml/kg body weight.
# Iron excretion studies: The monkeys receive a low-iron diet 7 days before and throughout the experiments (4 days). The diet is prepared by mixing 628.9 g of a liquid diet for primates (Nafag No. 9694), 83 g of the corresponding lipid mixture (Nafag No. 9696), 131.3 g dietary fiber (Sanacell, Nafag) and 1.0 L of distilled water. […]
row,Compound,induced iron in feces [µg/kg]
1,"COCCNC(=O)Cn1nc(-c2ccccc2O)nc1-c1ccccc1O [Example 25, 2-[3,5-Bis(2-hydroxyphenyl)-[1,2,4]triazol-1-yl]-N-(2-methoxyethyl)acetamide]",163.2
